Source: US20260231951A1, “COATED SEEDS AND METHODS TO IMPROVE CROPS” (MONTANA STATE UNIVERSITY, priority 2023, published 2026)

Key:
[1] = system: wheat; assay: Greenhouse test of DBDTP added to Cruiser Maxx Vibrance Cereals slurry for wheat; assay type: in vivo
Experimental: (§1) For this method, DBDTP amounts were combined with commonly used seed treatment pesticides using the recommended, crop-specific amount on the product label. The pesticides that were used include Obvius Plus Specimen fungicide seed treatment (BASF Corporation), Dyna-Shield imidacloprid 5 (Loveland Products), and Cruiser Maxx Vibrance Cereals (Syngenta). Pesticide amounts correspond to species-specific recommended amounts on the product label. After treatments were added to seeds, seed was rolled 5 minutes and allowed to dry completely.
DBDTP was added to a slurry of Cruiser Maxx Vibrance Cereals according to Table 8. Prior to the addition of DBDTP, the pesticide was diluted 1:1 Cruiser:H2O. DBDTP was added to the diluted Cruiser, such that 2.1 mg DBDTP was added to 62.5 μL to treat 5 g of seed. This experiment was planted in the greenhouse, and at 14 days after planting, the 25 mM treated seed was taller and had more tillers than the 0 mM control (FIG. 13). This experiment was planted in two separate greenhouses-one where the lights had been recently replaced with new LED lights, and one where the old light system remained. […] The main difference observed between the lights was that growth was much enhanced under the new lights, boosting tillering overall. This means that tillering differences due to DBDTP treatment may be observed earlier under the new LED light system.

[2] = system: corn; details: addition to a commercial liquid starter fertilizer applied in furrow with the seeds; cited from earlier work
[3] = system: wheat; assay: Greenhouse tests to identify ideal DBDTP seed treatment concentrations for wheat (SPRET surfactant); assay type: in vivo
Experimental: (§2) All greenhouse experiments took place under a 16-hour photoperiod with temperatures set to 22° C. day and 18° C. night.
(§3) Two seed treatment methods were examined: 1) Seed treated with DBDTP applied using a non-ionic surfactant and 2) Seed treated with DBDTP added to commonly used pesticide seed treatments (Example 8). For this testing, DBDTP was used as the dithiophosphate source. Note that the seed treatment concentration and volume is not standard across plant species. Each species tolerates a different level of DBDTP and the volume used to treat each species is dependent on seed size. After adding treatment to seed, seed was rolled for 5 minutes. Seed was then exposed to air and allowed to dry completely prior to planting.
(§4) For this method, the non-ionic wetter/spreader surfactant used for all treatments was SPRET (Helena Holding Company). The lowest recommended SPRET concentration was selected from the product label (1.25 mL/L H2O).
Greenhouse tests to identify ideal DBDTP seed treatment concentrations: A 7% w/v solution was used for each DBDTP treatment to achieve an even coating of wheat seeds. For each DBDTP level, small amounts of DBDTP were dissolved in the SPRET solution according to Table 2 and seed was treated with a 7% w/v solution. Five seeds were sown in 6″ pots and averaged for a single rep. Each DBDTP treatment had three replications.

[4] = system: chickpea; assay: Greenhouse test of DBDTP seed treatment concentration for chickpea growth (pesticide slurry); assay type: in vivo
Experimental: as §1
This test took place in the greenhouse. Seed was treated according to Table 7. Prior to planting, pots were watered and seed was sown into moist potting soil. Pots were not watered for 5 days after planting to avoid flushing DBDTP out of the pot. […] An ideal range likely falls between 0.05-0.46 mg DBDTP/seed.

[5] = system: Avondale lentil; assay: Greenhouse test of DBDTP seed treatment concentration for lentil growth; assay type: in vivo
Experimental: Testing was carried out in the greenhouse. Seed was treated according to Table 4. Prior to planting, pots were watered and seed was sown into moist potting soil. Pots were not watered for 5 days after planting to avoid flushing DBDTP out of the pot. […] Seed was treated with a 1.5% w/v solution of diluted SPRET surfactant with addition of DBDTP. Early plant growth was boosted between treatment concentrations 0.188 M-1.7 M. A likely beneficial treatment range lies between 0.03-0.26 mg/seed.

[6] = system: Provider bush beans; assay: Field trial of DBDTP treated green bean seed; assay type: in vivo
Experimental: Seed treatment levels consisted of 0, 175 mM, 350 mM, 700 mM, and 1.4 M DBDTP (Table 3) and seed was treated with a 5% w/v solution of diluted SPRET surfactant and DBDTP. For each seed treatment level, 15 reps were planted using a complete, randomized block design. Each rep consisted of a 3′, 2 row plot with 18 seeds planted per row. Entire plants were harvested at maturity and biomass was averaged for each row. Each row was considered a single rep. For each plot of treated seed, biomass was increased compared to the 0 mM control (FIG. 8A). […] Depending on whether the goal was to increase seed weight, or plant biomass, an ideal treatment range encompasses the 175 mM, 350 mM, and 700 mM treatments. These concentrations correspond to a range of 0.07-0.28 mg DBDTP/seed.

[7] = system: Cherry Belle F1 radish; assay: Field trial of DBDTP treated radish seed; assay type: in vivo
Experimental: Seed treatment levels consisted of 0, 12.5, 25, 50, and 100 mM DBDTP (Table 5) and seed was treated with a 7% w/v solution of diluted SPRET surfactant and DBDTP. For each seed treatment level, 15 reps were planted using a complete, randomized block design. Each rep consisted of a single 3′ row plot. Plots were seeded at a rate of 36 seeds/row and thinned to 4-6″ apart. Root fresh weight was averaged for each row and each row was considered a single rep. Root biomass was increased compared to the control at the 12.5 mM treatment level (FIG. 10). This corresponded to 0.001 mg/seed. Radish root growth likely be enhanced with an application rate in a range of 0.001-0.005 mg DBDTP/seed.

[8] = system: MT Dagmar spring wheat; assay: Field trial of DBDTP treated wheat seed; assay type: in vivo
Experimental: Seed treatment levels consisted of 0, 12.5, 25, 50, and 100 mM DBDTP as in Table 2 and applied in a 7% w/v solution. All seed for each treatment (1000 g) was treated at one time and then once dried it was weighed out for planting in single rows. For each seed treatment level, 15 reps were planted using a complete, randomized block design. Each rep consisted of a 10′, 2 row plot. Plots were seeded at a rate of 10 g/row. Seed was tractor planted, and prior to planting, the field was worked, and N was delivered to achieve 390 Ibs urea/acre. […] The 12.5 mM and 25 mM seed treatments appear to be the best concentrations to boost grain yield as well, as these treatments yielded an average of 3.5-5% higher respectively than the 0 mM control (FIG. 7B). An ideal treatment range encompasses the 12.5 mM and 25 mM treatments and high end of ideal concentrations likely lies between the 25 mM and 50 mM treatments.

[9] = system: wheat; assay: Wheat germination test (cigar roll method) in aqueous DBDTP; assay type: in vivo; details: wheat seeds in germination paper rolls, 7 days, compared to the 0 mg/L control; 41.2 μM-1.03 mM
Experimental: Wheat: For germination tests, 50 wheat seeds were placed within a roll of germination paper using the cigar roll method (Bai C, 2013, J Exp Bot, 64:1745-1753) with n=50. Rolls were placed upright in tubs containing varying concentrations of DBDTP in water, such that the end of the roll was submerged 3″ into the solution. Lids were placed on tubs, then shoot and root length measurements were recorded after 7 days.

[10] = system: MT 457 green field pea; assay: Field trial of DBDTP treated green field pea (with pesticide seed treatments); assay type: in vivo
Experimental: as §1
Seed treatment levels consisted of 0, 52, 103, 207, and 413 mM DBDTP (Table 6). Seed was treated with a 1.7% w/v solution that included DBDTP and seed treatment pesticides Dyna-Shield and Obvius (Table 6). After seed was treated and dried, it was inoculated with N Charge Inoculant for Pea, Vetch, and Lentil (Verdesian; 1.40 g/450 g seed) and planted within the same day as inoculating. For each seed treatment level, 15 reps were planted using a complete, randomized block design. Each rep consisted of a 10′, 2 row plot with 60 seeds planted per row. Mature seed was harvested for each plot. […] Seed yield was increased under all treatment levels tested, in a range of 0.04-0.31 mg/seed.

[11] = system: pea; assay: Pea germination test (cigar roll method) in aqueous DBDTP; assay type: in vivo; details: at all levels of DBDTP tested, 7 days
Experimental: Pea: For germination tests, 25 pea seeds were placed within each roll of germination paper using the cigar method described above. Measurements were recorded after 7 days with n=250.

[12] = system: wheat; assay: Greenhouse comparison of wheat growth after 25 mM seed treatments of three dithiophosphates; assay type: in vivo; details: 25 mM seed treatment in diluted SPRET, 7% w/v, 21 days after planting
Experimental: as §2
Dithiophosphates have different chemical properties depending on the length of their chains. For instance, the length of the carbon chain influences solubility of the chemical and the rate of H2S release. Growth of wheat when treated with 25 mM seed treatments of three different DTPs: dibutyldithiophosphate (C4), dioctyldithiophosphate (C8), and dihexyldecycldithiophosphate (C16) was evaluated. Chemical amount per seed used in 25 mM seed treatment applications is described in Table 1. Seed was treated with a 25 mM solution in which the DTP was dissolved in a low concentration of SPRET non-ionic surfactant (Method 1 below). After seeds had dried, they were sown in moist potting soil at a rate of 4 seeds per pot and then not watered for 5 days. There were 5 reps for each treatment where each rep was the average from a single pot. Measurements were collected 21 days after planting. Tiller number was improved for each of the three DTP treatments but was most improved with the dibutyl dithiophosphate (C4) source (FIG. 4).
as §3, §4

[13] = system: pea; assay: Greenhouse trial, pea with aqueous delivery of DBDTP; assay type: in vivo; details: 4 weeks after planting
Experimental: as §2
Pea: Prior to planting, pots were watered and seed was sown into moist potting soil. Immediately after planting, each pot was watered with 200 mL water containing, 0, 5, 25, 50, 100, or 500 mg dissolved DBDTP. Pots were not watered for ~5 days after planting to avoid flushing DBDTP out of the pot.

[14] = system: wheat; assay: Greenhouse trial, wheat with slow-release fertilizer and aqueous delivery of DBDTP; assay type: in vivo; details: 5 and 25 mg/pot DBDTP in 200 mL water, in the presence of fertilizer (Osmocote), 4 weeks after planting
Experimental: as §2
Wheat: To test whether the germination test growth enhancement response observed in wheat would still occur in the presence of added nitrogen fertilizer, wheat was grown under varying levels of slow-release fertilizer (Osmocote) and then watered in with an aqueous solution of DBDTP (see Carter J M, et al., 2019, J. Agric Food Chem. 67:11883-11892). Osmocote was added to potting soil according to the label to achieve low or medium fertilization rates. Prior to planting, pots were watered and seed was sown into moist potting soil. Immediately after planting, each pot was watered with 200 mL water containing, 0, 5, 25, 50, 100, or 500 mg dissolved DBDTP. Pots were not watered for ~5 days after planting to avoid flushing DBDTP out of the pot.

[15] = 25 mM in Cruiser Maxx Vibrance Cereals slurry, 14 days after planting, vs 0 mM control
[16] = seed treatments of up to 50 mM DBDTP, 35 days after planting

## CCCCOP(=S)(S)OCCCC [DBDTP, dibutyl dithiophosphate]
[1]; [15]
  plant height: taller
  tiller number: more tillers
[1]; 25 mM treated seed
  performance against control in both greenhouses (new LED lights, old light system): outperformed the control
[2]
  corn yield: increases corn yield
[3]; seed treatment doses higher than 50 mM, 7% w/v in SPRET
  germination: reduce germination
[3]; [16]
  plant height: enhanced
  tiller number: enhanced
[4]; 100 mM treatment level in pesticide slurry, 14 days after planting
  growth response of chickpea: positive DBDTP growth response
[4]; seed treatment, chickpea
  Likely ideal DBDTP range, chickpea: 0.05-0.46 mg/seed
[5]; around the 375 mM treatment level, 14 days after planting, 1.5% w/v SPRET
  growth response of lentil: positive DBDTP growth response
[5]; seed treatment, lentil
  Likely ideal (beneficial) DBDTP range, lentil: 0.03-0.26 mg/seed
[6]; each plot of treated seed (175 mM, 350 mM, 700 mM, 1.4 M), harvested at maturity, vs 0 mM control
  plant biomass: increased
[6]; lowest level tested (175 mM), vs control
  seed pod weight: increased
[6]; seed treatment, green bean
  Likely ideal DBDTP range, green bean: 0.07-0.28 mg/seed
[7]; 12.5 mM treatment level (0.001 mg/seed), vs control
  root biomass (root fresh weight): increased
[7]; seed treatment, radish
  Likely ideal DBDTP range, radish: 0.001-0.005 mg/seed
[8]; 12.5 mM seed treatment
  grain yield, average increase over the 0 mM control: 3.5%
[8]; 25 mM seed treatment
  grain yield, average increase over the 0 mM control: 5%
[8]; 100 mM DBDTP seed treatment
  plant growth and yield: significantly diminished
[8]; 12.5 and 25 mM seed treatment, 4 weeks after planting, vs 0 mM control
  tiller number: significantly higher
[9]
  DBDTP concentration range with positive growth response (shoot and root length): 10 to 250 mg/L
[10]; 413 mM treated seed
  seed yield, best treatment: highest yielding
[10]; each plot of treated seed (52, 103, 207, 413 mM), with Dyna-Shield and Obvius, vs control
  seed yield: increased
[10]; seed treatment, pea
  Likely ideal DBDTP range, pea (range in which seed yield was increased): 0.04-0.31 mg/seed
[11]
  growth response of pea seedlings: positive growth response
[12]
  tiller number: most improved
[13]; 100 and 500 mg/pot DBDTP
  growth response (pea vine length), best doses: greatest boost to growth
[13]; each DBDTP treatment (5, 25, 50, 100, 500 mg/pot in 200 mL water)
  growth response (pea vine length): positive response
[14]
  tiller number: boost to tiller number

## CCCCCCCCOP(=S)(S)OCCCCCCCC [dioctyldithiophosphate (C8), dioctyldithiophosphate]
[12]
  tiller number: improved

## dihexyldecycldithiophosphate [dihexyldecycldithiophosphate (C16)]
[12]
  tiller number: improved
